{"source": "ChEMBL document CHEMBL4376834", "about": "“Discovery of 4H-Chromen-4-one Derivatives as a New Class of Selective Rho Kinase (ROCK) Inhibitors, which Showed Potent Activity in ex Vivo Diabetic Retinopathy Models” (J Med Chem, 2019)", "key": {"[1]": {"biological_target": "Mitogen-activated protein kinase kinase kinase kinase 4 (Homo sapiens, UniProt O95819)", "assay": "Inhibition of recombinant human MAP4K4 (1 to 328 residues) using RLGRDKYKTLRQI as substrate incubated for 40 mins in presence of [gamma-33ATP by radiometric scintillation counting analysis"}, "[2]": {"biological_target": "Serine/threonine-protein kinase PRP4 homolog (Homo sapiens, UniProt Q13523)", "sequence (Q13523 whole entry)": "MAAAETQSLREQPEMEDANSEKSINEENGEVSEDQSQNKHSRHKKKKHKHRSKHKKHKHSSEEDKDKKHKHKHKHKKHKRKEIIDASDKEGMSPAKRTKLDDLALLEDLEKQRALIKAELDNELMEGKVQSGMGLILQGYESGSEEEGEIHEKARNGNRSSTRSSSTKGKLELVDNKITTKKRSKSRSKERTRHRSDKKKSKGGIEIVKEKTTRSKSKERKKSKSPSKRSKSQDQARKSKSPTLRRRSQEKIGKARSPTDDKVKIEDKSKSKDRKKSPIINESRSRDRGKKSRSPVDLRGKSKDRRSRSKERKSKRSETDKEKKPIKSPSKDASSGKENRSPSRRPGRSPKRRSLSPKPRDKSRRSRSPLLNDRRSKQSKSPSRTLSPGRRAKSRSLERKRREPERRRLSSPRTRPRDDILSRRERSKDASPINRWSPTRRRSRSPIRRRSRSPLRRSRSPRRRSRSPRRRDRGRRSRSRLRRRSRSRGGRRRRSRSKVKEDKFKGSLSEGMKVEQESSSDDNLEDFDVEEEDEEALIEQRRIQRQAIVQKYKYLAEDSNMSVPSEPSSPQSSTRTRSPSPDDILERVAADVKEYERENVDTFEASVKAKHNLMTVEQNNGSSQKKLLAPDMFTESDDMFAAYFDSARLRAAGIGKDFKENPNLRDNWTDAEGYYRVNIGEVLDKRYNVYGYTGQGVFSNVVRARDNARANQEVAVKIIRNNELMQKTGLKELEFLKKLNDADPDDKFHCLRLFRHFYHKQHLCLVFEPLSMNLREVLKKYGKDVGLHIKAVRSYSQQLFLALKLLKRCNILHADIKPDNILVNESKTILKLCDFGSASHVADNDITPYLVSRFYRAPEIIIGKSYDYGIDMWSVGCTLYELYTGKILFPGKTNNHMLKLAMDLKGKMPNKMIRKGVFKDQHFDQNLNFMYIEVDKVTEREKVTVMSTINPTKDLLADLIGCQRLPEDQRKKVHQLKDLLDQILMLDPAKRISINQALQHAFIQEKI", "assay": "Inhibition of recombinant human PRP4 (663 to end residues) using casein as substrate incubated for 40 mins in presence of [gamma33P]ATP by radiometric scintillation counting analysis"}, "[3]": {"biological_target": "Dual specificity mitogen-activated protein kinase kinase 1 (Homo sapiens, UniProt Q02750)", "sequence (Q02750 whole entry)": "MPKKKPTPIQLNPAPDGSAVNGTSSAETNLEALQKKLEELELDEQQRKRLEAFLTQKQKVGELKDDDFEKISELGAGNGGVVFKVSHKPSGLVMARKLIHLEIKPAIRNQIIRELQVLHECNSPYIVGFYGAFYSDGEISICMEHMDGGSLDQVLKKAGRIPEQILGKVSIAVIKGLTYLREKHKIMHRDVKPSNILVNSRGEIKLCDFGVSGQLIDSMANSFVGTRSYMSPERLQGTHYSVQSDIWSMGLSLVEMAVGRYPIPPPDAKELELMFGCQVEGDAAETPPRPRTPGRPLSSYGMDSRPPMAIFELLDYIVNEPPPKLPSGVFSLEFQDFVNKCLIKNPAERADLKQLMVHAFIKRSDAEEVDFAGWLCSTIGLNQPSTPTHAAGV", "assay": "Inhibition of recombinant full length human MEK1 using inactive MAPK2 as substrate incubated for 40 mins in presence of [gamma-33ATP by radiometric scintillation counting analysis"}, "[4]": {"biological_target": "Dual specificity tyrosine-phosphorylation-regulated kinase 1A (Homo sapiens, UniProt Q13627)", "assay": "Inhibition of recombinant full length human DYRK1A using RRRFRPASPLRGPP as substrate after 40 mins in presence of [gamma-33ATP] by radiometric scintillation counting analysis"}, "[5]": {"assay": "Intrinsic clearance in human liver microsomes measured upto 45 mins in presence of NADPH by LC-MS analysis", "format": "ADME, Microsome", "conditions": "read-out: CLH"}, "[6]": {"biological_target": "Tyrosine-protein kinase ABL1 (Homo sapiens, UniProt P00519, Y253F)", "assay": "Inhibition of human recombinant ABL1 Y253F mutant (27 to end residues) using EAIYAAPFAKKK as substrate incubated for 40 mins in presence of [gamma-33P]ATP by radiometric scintillation counting analysis"}, "[7]": {"biological_target": "Calcium/calmodulin-dependent protein kinase kinase 2 (Homo sapiens, UniProt Q96RR4, T85S)", "assay": "Inhibition of recombinant full length human CaMKK2 T85S mutant using calmodulin as substrate incubated for 40 mins in presence of [gamma-33ATP] by radiometric scintillation counting analysis"}, "[8]": {"biological_target": "Serine/threonine-protein kinase 35 (Homo sapiens, UniProt Q8TDR2)", "assay": "Inhibition of recombinant full length human CLIK1 at 10 uM using RSRSRSRSRSRS as substrate measured after 40 mins in presence of [gamma33P]ATP by radiometric scintillation counting analysis"}, "[9]": {"biological_target": "Dual specificity protein kinase TTK (Homo sapiens, UniProt P33981, S389A)", "assay": "Inhibition of recombinant full-length human TTK S389A mutant using MBP as substrate incubated for 40 mins in presence of [gamma33P]ATP by radiometric scintillation counting analysis"}, "[10]": {"biological_target": "Ephrin type-B receptor 3 (Homo sapiens, UniProt P54753)", "assay": "Inhibition of recombinant human EphB3 (599 to 920 residues) using poly(Glu, Tyr) 4:1 as substrate after 40 mins in presence of [gamma-33ATP] by radiometric scintillation counting analysis"}, "[11]": {"assay": "Inhibition of human PKA using Kemptide as substrate incubated for 40 mins in presence of [gamma-33P]ATP by radiometric scintillation counting analysis"}, "[12]": {"biological_target": "Tau-tubulin kinase 1 (Homo sapiens, UniProt Q5TCY1)", "assay": "Inhibition of recombinant human TTBK1 (1 to 479 residues) using casein as substrate incubated for 40 mins in presence of [gamma33P]ATP by radiometric scintillation counting analysis"}, "[13]": {"biological_target": "Serine/threonine-protein kinase 38-like (Homo sapiens, UniProt Q9Y2H1)", "assay": "Inhibition of recombinant human NDR2 (83 to end residues) using RSRSRSRSRSRSRSR as substrate measured after 40 mins in presence of [gamma33P]ATP by radiometric scintillation counting analysis"}, "[14]": {"biological_target": "Serine/threonine-protein kinase PAK 6 (Homo sapiens, UniProt Q9NQU5)", "sequence (Q9NQU5 whole entry)": "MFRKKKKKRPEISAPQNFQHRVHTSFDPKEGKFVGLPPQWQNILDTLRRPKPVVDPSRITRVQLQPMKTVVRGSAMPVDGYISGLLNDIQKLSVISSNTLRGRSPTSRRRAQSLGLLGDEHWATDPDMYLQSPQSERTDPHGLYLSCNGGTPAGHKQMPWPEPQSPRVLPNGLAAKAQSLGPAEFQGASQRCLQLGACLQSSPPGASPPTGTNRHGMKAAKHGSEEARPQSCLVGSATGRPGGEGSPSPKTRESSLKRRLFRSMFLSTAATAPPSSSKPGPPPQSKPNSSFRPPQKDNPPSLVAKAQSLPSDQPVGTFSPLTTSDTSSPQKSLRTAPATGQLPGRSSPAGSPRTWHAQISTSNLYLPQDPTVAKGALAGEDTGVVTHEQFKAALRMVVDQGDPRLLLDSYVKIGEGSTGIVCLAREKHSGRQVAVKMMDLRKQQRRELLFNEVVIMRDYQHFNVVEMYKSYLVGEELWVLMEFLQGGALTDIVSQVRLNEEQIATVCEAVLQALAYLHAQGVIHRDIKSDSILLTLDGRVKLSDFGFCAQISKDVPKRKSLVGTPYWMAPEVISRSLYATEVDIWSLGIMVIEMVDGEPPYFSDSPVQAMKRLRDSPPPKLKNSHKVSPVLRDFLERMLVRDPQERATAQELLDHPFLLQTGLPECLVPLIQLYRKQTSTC", "assay": "Inhibition of recombinant human PAK6 (382 to end residues) using RRRLSFAEPG as substrate measured after 40 mins in presence of [gamma33P]ATP by radiometric scintillation counting analysis"}, "[15]": {"biological_target": "ALK tyrosine kinase receptor (Homo sapiens, UniProt Q9UM73)", "assay": "Inhibition of human recombinant ALK (1058 to end residues) using KKKSPGEYVNIEF as substrate incubated for 40 mins in presence of [gamma-33P]ATP by radiometric scintillation counting analysis"}, "[16]": {"biological_target": "MAPK/MAK/MRK overlapping kinase (Homo sapiens, UniProt Q9UQ07)", "assay": "Inhibition of recombinant human MOK (1 to 343 residues) using RSRSRSRSRSRSR as substrate incubated for 40 mins in presence of [gamma-33ATP by radiometric scintillation counting analysis"}, "[17]": {"biological_target": "Hepatocyte growth factor receptor (Homo sapiens, UniProt P08581, D1228H)", "sequence (P08581 25-1390 D1228H limits assumed)": "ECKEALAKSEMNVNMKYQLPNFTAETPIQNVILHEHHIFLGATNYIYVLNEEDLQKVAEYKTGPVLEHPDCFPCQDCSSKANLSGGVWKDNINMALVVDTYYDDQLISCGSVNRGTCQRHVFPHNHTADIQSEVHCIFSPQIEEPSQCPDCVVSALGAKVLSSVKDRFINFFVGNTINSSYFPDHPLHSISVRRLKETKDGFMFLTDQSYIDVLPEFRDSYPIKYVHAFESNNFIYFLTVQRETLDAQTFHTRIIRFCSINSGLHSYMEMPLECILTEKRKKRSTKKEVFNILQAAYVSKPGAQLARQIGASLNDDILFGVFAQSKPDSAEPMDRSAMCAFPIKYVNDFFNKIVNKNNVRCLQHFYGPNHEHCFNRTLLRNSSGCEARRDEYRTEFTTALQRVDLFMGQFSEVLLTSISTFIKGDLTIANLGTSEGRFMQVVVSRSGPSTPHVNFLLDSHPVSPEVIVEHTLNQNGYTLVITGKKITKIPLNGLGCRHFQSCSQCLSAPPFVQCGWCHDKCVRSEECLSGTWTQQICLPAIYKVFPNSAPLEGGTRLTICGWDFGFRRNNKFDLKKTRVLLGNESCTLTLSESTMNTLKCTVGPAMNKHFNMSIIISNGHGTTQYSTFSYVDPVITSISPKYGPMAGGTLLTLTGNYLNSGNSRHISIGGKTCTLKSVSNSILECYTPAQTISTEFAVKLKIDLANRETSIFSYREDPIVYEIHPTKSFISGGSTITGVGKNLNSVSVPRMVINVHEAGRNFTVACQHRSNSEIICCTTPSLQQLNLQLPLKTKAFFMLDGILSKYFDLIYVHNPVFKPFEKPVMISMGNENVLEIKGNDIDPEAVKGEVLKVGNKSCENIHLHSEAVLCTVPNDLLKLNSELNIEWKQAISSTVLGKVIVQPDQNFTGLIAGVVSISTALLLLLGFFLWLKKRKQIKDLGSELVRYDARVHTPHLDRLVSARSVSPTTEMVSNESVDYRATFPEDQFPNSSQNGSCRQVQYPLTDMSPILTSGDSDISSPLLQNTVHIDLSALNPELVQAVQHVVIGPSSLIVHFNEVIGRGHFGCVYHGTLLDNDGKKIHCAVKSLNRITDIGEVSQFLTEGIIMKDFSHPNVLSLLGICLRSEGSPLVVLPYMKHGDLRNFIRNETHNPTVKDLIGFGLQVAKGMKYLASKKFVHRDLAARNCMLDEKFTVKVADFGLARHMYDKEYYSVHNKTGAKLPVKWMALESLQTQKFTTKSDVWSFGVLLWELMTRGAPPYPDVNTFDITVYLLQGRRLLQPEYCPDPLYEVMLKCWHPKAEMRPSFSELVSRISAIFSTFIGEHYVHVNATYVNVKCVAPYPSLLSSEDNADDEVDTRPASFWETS", "assay": "Inhibition of recombinant human MET A1209G/V1290L/D1246H triple mutant (974 to end residues) using KKKGQEEEYVFIE as substrate incubated for 40 mins in presence of [gamma-33ATP by radiometric scintillation counting analysis"}, "[18]": {"biological_target": "Receptor-interacting serine/threonine-protein kinase 2 (Homo sapiens, UniProt O43353)", "sequence (O43353 whole entry, the tested form may be a part)": "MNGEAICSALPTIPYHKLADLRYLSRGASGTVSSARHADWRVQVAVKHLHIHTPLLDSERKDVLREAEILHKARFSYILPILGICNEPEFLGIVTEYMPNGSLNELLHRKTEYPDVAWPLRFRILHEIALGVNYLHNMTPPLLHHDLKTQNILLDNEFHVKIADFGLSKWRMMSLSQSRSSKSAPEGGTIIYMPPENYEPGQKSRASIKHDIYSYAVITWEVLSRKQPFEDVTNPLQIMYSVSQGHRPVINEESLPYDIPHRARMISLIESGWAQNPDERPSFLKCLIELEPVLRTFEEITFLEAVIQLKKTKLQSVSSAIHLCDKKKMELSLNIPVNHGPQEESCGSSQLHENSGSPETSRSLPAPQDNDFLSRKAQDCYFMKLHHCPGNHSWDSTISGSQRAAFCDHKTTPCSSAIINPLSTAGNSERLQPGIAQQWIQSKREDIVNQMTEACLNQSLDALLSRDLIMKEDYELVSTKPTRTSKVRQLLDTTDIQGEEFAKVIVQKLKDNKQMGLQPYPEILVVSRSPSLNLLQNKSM", "assay": "Inhibition of recombinant human RIPK2 (1 to 299 residues) using MBP as substrate incubated for 120 mins in presence of [gamma33P]ATP by radiometric scintillation counting analysis"}, "[19]": {"biological_target": "Dual specificity mitogen-activated protein kinase kinase 7 (Homo sapiens, UniProt O14733)", "sequence (O14733 whole entry)": "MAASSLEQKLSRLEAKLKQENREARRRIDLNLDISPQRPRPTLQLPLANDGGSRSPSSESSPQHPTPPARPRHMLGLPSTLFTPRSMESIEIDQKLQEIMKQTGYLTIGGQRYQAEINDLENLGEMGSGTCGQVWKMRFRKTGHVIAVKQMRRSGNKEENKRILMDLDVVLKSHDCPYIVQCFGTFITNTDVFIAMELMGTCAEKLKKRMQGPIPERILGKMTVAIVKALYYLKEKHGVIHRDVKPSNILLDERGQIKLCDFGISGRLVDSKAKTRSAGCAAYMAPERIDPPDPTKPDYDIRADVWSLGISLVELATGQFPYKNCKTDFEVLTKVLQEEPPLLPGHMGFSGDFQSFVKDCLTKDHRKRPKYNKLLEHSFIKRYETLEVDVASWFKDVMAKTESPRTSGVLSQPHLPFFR", "assay": "Inhibition of recombinant human MKK7 (2 to end residues) using inactive JNK1a1 as substrate incubated for 40 mins by radiometric scintillation counting analysis"}, "[20]": {"biological_target": "cAMP-dependent protein kinase catalytic subunit PRKX (Homo sapiens, UniProt P51817)", "assay": "Inhibition of recombinant human full length PrKX using RRRLSFAEPG as substrate incubated for 40 mins in presence of [gamma33P]ATP by radiometric scintillation counting analysis"}, "[21]": {"biological_target": "Dual specificity mitogen-activated protein kinase kinase 6 (Homo sapiens, UniProt P52564)", "assay": "Inhibition of recombinant human MKK6 (4 to end residues) using SAPK2 as substrate incubated for 40 mins by radiometric scintillation counting analysis"}, "[22]": {"biological_target": "Eukaryotic elongation factor 2 kinase (Homo sapiens, UniProt O00418, H23R)", "assay": "Inhibition of recombinant human eEF2K H23R mutant (2 to end residues) using RKKFGESEKTKTK as substrate after 40 mins in presence of [gamma-33ATP] by radiometric scintillation counting analysis"}, "[23]": {"biological_target": "Tyrosine-protein kinase ITK/TSK (Homo sapiens, UniProt Q08881)", "sequence (Q08881 whole entry, the tested form may be a part)": "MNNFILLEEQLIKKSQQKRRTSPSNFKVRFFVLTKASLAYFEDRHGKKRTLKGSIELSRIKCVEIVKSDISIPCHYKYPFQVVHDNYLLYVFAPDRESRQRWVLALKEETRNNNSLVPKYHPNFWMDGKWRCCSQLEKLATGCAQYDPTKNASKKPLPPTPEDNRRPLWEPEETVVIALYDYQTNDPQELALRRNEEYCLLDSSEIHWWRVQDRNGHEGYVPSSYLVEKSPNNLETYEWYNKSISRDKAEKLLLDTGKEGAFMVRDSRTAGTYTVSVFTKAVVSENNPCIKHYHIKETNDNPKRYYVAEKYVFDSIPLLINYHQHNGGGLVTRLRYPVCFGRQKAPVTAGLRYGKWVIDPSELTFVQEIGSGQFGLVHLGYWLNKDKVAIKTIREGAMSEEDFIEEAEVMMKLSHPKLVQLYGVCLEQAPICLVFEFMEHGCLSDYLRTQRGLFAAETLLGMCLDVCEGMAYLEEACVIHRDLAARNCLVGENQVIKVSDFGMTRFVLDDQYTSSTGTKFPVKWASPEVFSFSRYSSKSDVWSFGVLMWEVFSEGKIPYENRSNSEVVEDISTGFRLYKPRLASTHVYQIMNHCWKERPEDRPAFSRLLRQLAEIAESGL", "assay": "Inhibition of human recombinant Itk (352 to 617 residues) using myelin basic protein as substrate after 40 mins by [gamma-33ATP] by radiometric scintillation counting analysis"}, "[24]": {"biological_target": "Serine/threonine-protein kinase DCLK3 (Homo sapiens, UniProt Q9C098)", "assay": "Inhibition of recombinant human DCAMKL3 (345 to end residues) using KKLNRTLSFAEPG as substrate after 40 mins in presence of [gamma-33ATP] by radiometric scintillation counting analysis"}, "[25]": {"biological_target": "Serine/threonine-protein kinase TAO1 (Homo sapiens, UniProt Q7L7X3)", "assay": "Inhibition of recombinant human TAO1 (1 to 327 residues) using myelin basic protein as substrate incubated for 40 mins in presence of [gamma33P]ATP by radiometric scintillation counting analysis"}, "[26]": {"biological_target": "Serine/threonine-protein kinase PLK1 (Homo sapiens, UniProt P53350)", "assay": "Inhibition of recombinant full-length human Plk1 using casein as substrate incubated for 40 mins in presence of [gamma33P]ATP by radiometric scintillation counting analysis"}}, "data": [{"smiles": "CN(C)c1ccc(C(=O)Nc2cccc(NC(=O)COc3ccc4c(=O)ccoc4c3)c2)cc1", "values": [{"measurement": "IC50", "setting": "[1]", "value": "> 10", "unit": "µM"}, {"measurement": "IC50", "setting": "[2]", "value": "> 10", "unit": "µM"}, {"measurement": "IC50", "setting": "[3]", "value": "> 10", "unit": "µM"}, {"measurement": "IC50", "setting": "[4]", "value": "> 10", "unit": "µM"}, {"measurement": "CLint scaled", "setting": "[5]", "value": 216, "unit": "mL/min/kg"}, {"measurement": "IC50", "setting": "[6]", "value": "> 10", "unit": "µM"}, {"measurement": "IC50", "setting": "[7]", "value": "> 10", "unit": "µM"}, {"measurement": "IC50", "setting": "[8]", "value": "> 10", "unit": "µM"}, {"measurement": "IC50", "setting": "[9]", "value": "> 10", "unit": "µM"}, {"measurement": "IC50", "setting": "[10]", "value": "> 10", "unit": "µM"}, {"measurement": "IC50", "setting": "[11]", "value": "> 10", "unit": "µM"}, {"measurement": "IC50", "setting": "[12]", "value": "> 10", "unit": "µM"}, {"measurement": "IC50", "setting": "[13]", "value": "> 10", "unit": "µM"}, {"measurement": "IC50", "setting": "[14]", "value": "> 10", "unit": "µM"}, {"measurement": "IC50", "setting": "[15]", "value": "> 10", "unit": "µM"}, {"measurement": "IC50", "setting": "[16]", "value": "> 10", "unit": "µM"}, {"measurement": "IC50", "setting": "[17]", "value": "> 10", "unit": "µM"}, {"measurement": "IC50", "setting": "[18]", "value": "> 10", "unit": "µM"}, {"measurement": "IC50", "setting": "[19]", "value": "> 10", "unit": "µM"}, {"measurement": "IC50", "setting": "[20]", "value": "> 10", "unit": "µM"}, {"measurement": "IC50", "setting": "[21]", "value": "> 10", "unit": "µM"}, {"measurement": "IC50", "setting": "[22]", "value": "> 10", "unit": "µM"}, {"measurement": "IC50", "setting": "[23]", "value": "> 10", "unit": "µM"}, {"measurement": "IC50", "setting": "[24]", "value": "> 10", "unit": "µM"}, {"measurement": "IC50", "setting": "[25]", "value": "> 10", "unit": "µM"}, {"measurement": "IC50", "setting": "[26]", "value": "> 10", "unit": "µM"}]}]}
